Laboratory results reported in patent publication US8361743B2, “Biological production of zeaxanthin and carotenoid biosynthesis control” (Aquapharm Bio-Discovery Ltd., priority 2005, dated 2013).

System: strain AQP096
Experiment: Induction of the carotenoid biosynthetic pathway using menadione, HPLC carotenoid analysis
Format: cell-based, Algibacter sp. AQP096
Method: On the HPLC using a reverse phase Gemini C-18 250×4.6 mm column, 10 μl of pigment sample was eluted with a linear gradient from 10% v/v Acetone in Water: 100% Acetone (30:70) to 10% v/v Acetone in Water:100% Acetone (5:95) for 10 min followed with a 6 minute run of 10% v/v Acetone in Water:100% Acetone (5:95) before returning to the start conditions of 10% v/v Acetone in Water: 100% Acetone (30:70) with a 1 min linear gradient and a two minute run of 10% v/v Acetone in Water:100% Acetone (30:70) at a flow rate of 1.3 ml/min. Detection was at 450 nm. Menadione at a concentration of 0.100 mg/ml was added to a 24 hr old culture of AQP096 cultured in marine broth. This culture was further incubated for 4 days on the orbital shaker at 220 rpm […]. After 5 days of incubation, cultures were centrifuged (4,500 rpm, 20 min) and the pigments analysed for carotenoid content by HPLC (See FIGS. 4a and 4b).

## CC1=CC(=O)c2ccccc2C1=O [menadione]
Menadione 0.100 mg/ml
  induced production of astaxanthin: ~12%
  induced production of beta carotene: about 10%
  induced production of beta-cryptoxanthin: ~8%
  induced production of canthaxanthin: ~12%
  induced production of lycopene: ~6%
  induced production of other carotenoids such as adonirubin and 3-hydroxyechinenone: ~2%
Menadione 0.100 mg/ml added to 24 hr old culture in marine broth, HPLC
  effect on carotenoid production: induced the production of all carotenoids associated with the standard carotenoid biosynthetic pathway
Menadione 0.100 mg/ml, 98% under standard growth conditions
  amount of zeaxanthin produced by AQP096: around 60%
